Each structure is given as a SMILES string.

In general, inhibition refers to the change of the read-out against control, counted positive when it falls.

Assay [1] deals with sodium monoiodoacetate-induced model rats. The experiment in a line: Analgesic effect on sodium monoiodoacetate-induced model rats. As to conditions: MIA-induced model rats. Format: in vivo, rat.
The next assay addresses KDR (Homo sapiens (Human), UniProt P35968). The experiment in a line: Enzyme-inhibiting activity test of kinases other than Trk (selectivity experiment): KDR. Format: biochemical. As to conditions: concentration of 3 μM; read-out: Inhibition rate (%) KDR. As for the experimental part:
(§1) A test substance (the present compound) was dissolved in dimethylsulfoxide to prepare a 100-fold concentration of the test concentration, 3 μM. The solution was further diluted to 25-fold with an assay buffer (20 mM HEPES, 0.01% Triton X-100, 2 mM DTT, pH 7.5) to obtain a test substance solution. In a similar manner a positive control substance solution was prepared with a positive control substance.
(§2) A 4-times concentration solution (5 μL) of the test substance prepared with the assay buffer, 5 μL of a 4-times concentration solution of substrate/ATP/metal (Mg) and 10 μL of a 2-times concentration solution of kinase were mixed in a well of a polypropylene 384-well plate and allowed to react at room temperature for 1 hour. The reaction was terminated by adding 60 μL of a Termination Buffer (QuickScout Screening Assist MSA; Carna Biosciences). The substrate peptide and the phosphorylated peptide in the reaction solution were separated and quantified. The kinase reaction was assessed from the product ratio (P/(P+S)) calculated from the height (S) of the peak of the substrate peptide and the height (P) of the peak of the phosphorylated peptide. Other kinases used in the kinase selectivity experiments were, for example, b-Raf and KDR. The following Table 3 indicates substrates, substrate concentrations, ATP concentrations and positive control substances used in respective kinase enzyme inhibition activity tests.

The next assay has as its target b-Raf (Homo sapiens (Human), UniProt P15056). Kind of assay: Enzyme-inhibiting activity test of kinases other than Trk (selectivity experiment): b-Raf. The class given is biochemical. As to conditions: concentration of 3 μM; read-out: Inhibition rate (%) b-Raf. How it is done:
as §1, §2

Where [2] appears, read: test substance orally twice a day day 14 to 23, day 24 3 hours before measurement, right hind limb weight load ratio, experiment with tramadol as positive control.
The mark [3] stands for this setting: test substance orally twice a day day 14 to 23, day 24 3 hours before measurement, right hind limb weight load ratio, experiment with morphine as positive control.

Chain of b-Raf (P15056 whole entry, species assumed): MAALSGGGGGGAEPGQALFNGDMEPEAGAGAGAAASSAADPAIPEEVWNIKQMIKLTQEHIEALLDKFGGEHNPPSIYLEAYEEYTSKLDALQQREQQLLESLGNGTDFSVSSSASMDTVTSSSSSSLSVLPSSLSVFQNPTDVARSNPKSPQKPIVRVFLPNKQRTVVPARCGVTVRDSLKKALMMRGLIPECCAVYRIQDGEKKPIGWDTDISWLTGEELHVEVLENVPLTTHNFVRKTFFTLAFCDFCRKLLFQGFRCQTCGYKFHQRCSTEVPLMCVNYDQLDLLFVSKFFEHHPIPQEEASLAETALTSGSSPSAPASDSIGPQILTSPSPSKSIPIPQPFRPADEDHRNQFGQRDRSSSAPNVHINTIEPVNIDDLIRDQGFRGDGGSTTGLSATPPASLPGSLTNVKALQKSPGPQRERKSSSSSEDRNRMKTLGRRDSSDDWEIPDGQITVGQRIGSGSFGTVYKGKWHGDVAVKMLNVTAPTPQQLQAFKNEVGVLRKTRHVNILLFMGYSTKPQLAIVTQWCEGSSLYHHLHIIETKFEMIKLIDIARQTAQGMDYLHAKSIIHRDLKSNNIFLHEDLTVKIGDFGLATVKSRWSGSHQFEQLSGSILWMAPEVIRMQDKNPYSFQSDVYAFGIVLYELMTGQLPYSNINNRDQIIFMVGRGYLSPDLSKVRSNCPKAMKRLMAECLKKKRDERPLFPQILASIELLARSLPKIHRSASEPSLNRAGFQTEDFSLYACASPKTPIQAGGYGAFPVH
Chain of KDR (P35968 20-1356, species assumed): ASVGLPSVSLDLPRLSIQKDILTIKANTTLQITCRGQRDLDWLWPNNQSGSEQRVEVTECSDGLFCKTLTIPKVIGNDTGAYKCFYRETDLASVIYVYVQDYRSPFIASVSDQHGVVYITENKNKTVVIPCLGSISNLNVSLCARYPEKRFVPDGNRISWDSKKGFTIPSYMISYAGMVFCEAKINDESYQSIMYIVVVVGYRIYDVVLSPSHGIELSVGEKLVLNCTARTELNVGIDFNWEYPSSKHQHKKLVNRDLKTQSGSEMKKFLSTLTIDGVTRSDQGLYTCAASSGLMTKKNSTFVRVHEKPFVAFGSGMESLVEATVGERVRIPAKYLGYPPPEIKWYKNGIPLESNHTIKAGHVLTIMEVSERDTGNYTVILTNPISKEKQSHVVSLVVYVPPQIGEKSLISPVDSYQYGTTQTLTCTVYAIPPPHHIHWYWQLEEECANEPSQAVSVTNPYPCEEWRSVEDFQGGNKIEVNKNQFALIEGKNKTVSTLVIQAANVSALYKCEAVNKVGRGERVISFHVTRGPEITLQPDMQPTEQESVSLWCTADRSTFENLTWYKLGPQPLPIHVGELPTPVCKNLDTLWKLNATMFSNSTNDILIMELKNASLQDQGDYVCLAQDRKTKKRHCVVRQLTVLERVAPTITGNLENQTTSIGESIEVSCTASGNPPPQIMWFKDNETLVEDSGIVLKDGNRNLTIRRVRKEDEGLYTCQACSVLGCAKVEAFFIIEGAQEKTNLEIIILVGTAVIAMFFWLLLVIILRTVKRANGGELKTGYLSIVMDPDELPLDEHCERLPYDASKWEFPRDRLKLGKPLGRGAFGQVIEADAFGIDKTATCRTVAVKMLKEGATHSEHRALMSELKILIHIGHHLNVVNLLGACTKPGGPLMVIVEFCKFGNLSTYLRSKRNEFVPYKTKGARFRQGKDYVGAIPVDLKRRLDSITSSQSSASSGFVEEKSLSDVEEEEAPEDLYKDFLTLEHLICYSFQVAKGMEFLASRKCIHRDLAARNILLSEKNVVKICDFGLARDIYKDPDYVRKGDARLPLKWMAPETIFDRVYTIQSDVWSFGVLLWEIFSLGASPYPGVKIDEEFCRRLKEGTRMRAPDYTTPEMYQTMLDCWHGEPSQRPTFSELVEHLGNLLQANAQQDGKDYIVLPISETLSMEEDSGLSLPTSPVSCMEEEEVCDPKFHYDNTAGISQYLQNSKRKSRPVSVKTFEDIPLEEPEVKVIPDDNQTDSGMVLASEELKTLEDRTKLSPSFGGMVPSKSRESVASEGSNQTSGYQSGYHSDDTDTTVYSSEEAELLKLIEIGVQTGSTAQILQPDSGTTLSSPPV

Take `Nc1ncc(F)cc1-c1ccc(Oc2ncc(NC(=O)Nc3cc(C(F)(F)F)ccc3-n3ccnn3)cn2)cc1` [Example 14-5, 1-(2-(1H-1,2,3-triazol-1-yl)-5-(trifluoromethyl)phenyl)-3-(2-(4-(2-amino-5-fluoropyridin-3-yl)phenoxy)pyrimidin-5-yl)urea]: the “Percent improvement (%)” value in assay [1] (setting [2]) was determined as 47%. Further, the values for the inhibition at 3 µM on KDR and on b-Raf were 0% and 13%, respectively.
For the compound `CN(C)c1ccn2ncc(-c3ccc(Oc4ncc(NC(=O)Nc5cc(C(F)(F)F)ccc5-c5cccnc5)cn4)cc3)c2n1` [Example 21-37], the “Percent improvement (%)” value in assay [1] (setting [3]) amounted to 67%. Besides, the inhibition at 3 µM on KDR was found to be 16%; at b-Raf, 50%.
With `CN(C)S(=O)(=O)c1ccc(C(F)(F)F)cc1NC(=O)Nc1cnc(Oc2ccc(-c3cc(C(F)(F)F)cnc3N)cc2)nc1` [Example 15-105, 2-{[(2-{4-[2-amino-5-(trifluoromethyl)-3-pyridinyl]phenoxyl}-5-pyrimidinyl)carbamoyl]amino}-N,N-dimethyl-4-(trifluoromethyl)benzenesulfonamide], the inhibition at 3 µM on KDR was 0%; at b-Raf, 26%.
For the compound `Cc1cccc(-c2ccc(C(F)(F)F)cc2NC(=O)Nc2cnc(Oc3ccc(-c4cnn5ccc(N(C)C)nc45)cc3)nc2)c1` [Example 21-73, 1-(2-{4-[5-(dimethylamino)pyrazolo[1,5-a]pyrimidin-3-yl]phenoxyl}-5-pyrimidinyl)-3-[3′-methyl-4-(trifluoromethyl)-2-biphenylyl]urea], the “Percent improvement (%)” value in assay [1] (setting [3]) worked out at 62%. Further, the values for the inhibition at 3 µM at KDR and on b-Raf were 0% and 21%, respectively.
On to `Nc1ncc(Cl)cc1-c1ccc(Oc2ncc(NC(=O)Nc3ccc(C(F)(F)F)cc3C(F)(F)F)cn2)cc1` [Example 15-77, 1-{2-[4-(2-amino-5-chloro-3-pyridinyl)phenoxy]-5-pyrimidinyl}-3-[2,4-bis(trifluoromethyl)phenyl]urea], for which, in assay [1] (setting [3]), the “Percent improvement (%)” value was 55%. Further, the inhibition at 3 µM at KDR was determined as 0%; at b-Raf, 32%.
`COc1ccn2ncc(-c3ccc(Oc4ncc(NC(=O)Nc5cc(C(F)(F)F)ccc5-c5cccnc5)cn4)cc3)c2n1` [Example 21-9, 1-(2-(4-(5-methoxypyrazolo[1,5-a]pyrimidin-3-yl)phenoxy)pyrimidin-5-yl)-3-(2-(pyridin-3-yl)-5-(trifluoromethyl)phenyl)urea]: the “Percent improvement (%)” value in assay [1] (setting [2]) worked out at 64%.
In the case of `Cc1cn(-c2ccc(C(F)(F)F)cc2NC(=O)Nc2cnc(Oc3ccc(-c4cc(Cl)cnc4N)cc3)nc2)nn1` [Example 8-1, 1-(2-(4-(2-amino-5-chloropyridin-3-yl)phenoxy)pyrimidin-5-yl)-3-(2-(4-methyl-1H-1,2,3-triazol-1-yl)-5-(trifluoromethyl)phenyl)urea], the “Percent improvement (%)” value in assay [1] (setting [2]) is on record as 60%. The inhibition at 3 µM at KDR came out at 0%; at b-Raf, 6.5%.
For `Cn1nccc1-c1ccc(C(F)(F)F)cc1NC(=O)Nc1cnc(Oc2ccc(-c3cnn4ccc(N5CCC5)nc34)cc2)nc1` [Example 21-2, 1-(2-(4-(5-(azetidin-1-yl)pyrazolo[1,5-a]pyrimidin-3-yl)phenoxy)pyrimidin-5-yl)-3-(2-(1-methyl-1H-pyrazol-5-yl)-5-(trifluoromethyl)phenyl)urea], the results for the inhibition at 3 µM on KDR and at b-Raf were 1% and 30%, respectively.
Consider `Nc1ncc(Cl)cc1-c1ccc(Oc2ncc(NC(=O)Nc3cc(Cl)ccc3-n3ccc(C(F)(F)F)n3)cn2)cc1` [Example 15-71, 1-{2-[4-(2-amino-5-chloro-3-pyridinyl)phenoxy]-5-pyrimidinyl}-3-{5-chloro-2-[3-(trifluoromethyl)-1H-pyrazol-1-yl]phenyl}urea], for which the inhibition at 3 µM stood at 0% at KDR and 40% at b-Raf.
As to `O=C(Nc1cnc(Oc2ccc(-c3cnn4cccnc34)cc2)nc1)Nc1cc(C(F)(F)F)ccc1-c1cccnc1` [Example 21-13, 1-(2-(4-(pyrazolo[1,5-a]pyrimidin-3-yl)phenoxy)pyrimidin-5-yl)-3-(2-(pyridin-3-yl)-5-(trifluoromethyl)phenyl)urea], the “Percent improvement (%)” value in assay [1] (setting [2]) is given as 66%.
In the case of `Nc1ncc(Cl)cc1-c1ccc(Oc2ncc(NC(=O)Nc3cc(C(F)(F)F)ccc3-n3cccn3)cn2)cc1` [Example 7, 1-(2-(1H-pyrazol-1-yl)-5-(trifluoromethyl)phenyl)-3-(2-(4-(2-amino-5-chloropyridin-3-yl)phenoxy)pyrimidin-5-yl)urea], the “Percent improvement (%)” value in assay [1] (setting [2]) is 61%. The inhibition at 3 µM at KDR is 0%; on b-Raf, 40%.
With `Nc1ncc(F)cc1-c1ccc(Oc2ncc(NC(=O)Nc3cc(C(F)(F)F)ccc3-c3ccccc3)cn2)cc1` [Example 15-58, 1-{2-[4-(2-amino-5-fluoro-3-pyridinyl)phenoxy]-5-pyrimidinyl}-3-[4-(trifluoromethyl)-2-biphenylyl]urea], the inhibition at 3 µM on KDR is 0%; on b-Raf, 30%.
Consider `Cc1ccccc1-c1ccc(C(F)(F)F)cc1NC(=O)Nc1cnc(Oc2ccc(-c3cnn4ccc(N(C)C)nc34)cc2)nc1` [Example 21-75, 1-(2-{4-[5-(dimethylamino)pyrazolo[1,5-a]pyrimidin-3-yl]phenoxyl}-5-pyrimidinyl)-3-[2′-methyl-4-(trifluoromethyl)-2-biphenylyl]urea], for which the inhibition at 3 µM on KDR turned out to be 0%; at b-Raf it was 41%.
Consider `Nc1ncc(Cl)cc1-c1ccc(Oc2ncc(NC(=O)Nc3cc(C(F)(F)F)ccc3-n3ccc(C(F)(F)F)n3)cn2)cc1` [Example 8-2, 1-(2-(4-(2-amino-5-chloropyridin-3-yl)phenoxy)pyrimidin-5-yl)-3-(5-(trifluoromethyl)-2-(3-(trifluoromethyl)-1H-pyrazol-1-yl)phenyl)urea], for which the inhibition at 3 µM on KDR is 0%; on b-Raf it was 21%.
For `CS(=O)(=O)c1ccc(C(F)(F)F)cc1NC(=O)Nc1cnc(Oc2ccc(-c3cc(F)cnc3N)cc2)nc1` [Example 15-96, 1-{2-[4-(2-amino-5-fluoro-3-pyridinyl)phenoxy]-5-pyrimidinyl}-3-[2-(methylsulfonyl)-5-(trifluoromethyl)phenyl]urea] the same measures were 2% and 22%.
For `Cc1ccn2ncc(-c3ccc(Oc4ncc(NC(=O)Nc5cc(C(F)(F)F)ccc5-c5cccnc5)cn4)cc3)c2n1` [Example 21-65, 1-{2-[4-(5-methylpyrazolo[1,5-a]pyrimidin-3-yl)phenoxy]-5-pyrimidinyl}-3-[2-(3-pyridinyl)-5-(trifluoromethyl)phenyl]urea], the values for the inhibition at 3 µM on KDR and on b-Raf were 19% and 58%, respectively.
Consider `Nc1ncc(Cl)cc1-c1ccc(Oc2ncc(NC(=O)Nc3ccc(C(F)(F)F)cc3-n3cccn3)cn2)cc1` [Example 15-4, 1-(2-(1H-pyrazol-1-yl)-4-(trifluoromethyl)phenyl)-3-(2-(4-(2-amino-5-chloropyridin-3-yl)phenoxy)pyrimidin-5-yl)urea], for which the inhibition at 3 µM on KDR and at b-Raf was 0% in each case.
Take `O=C(Nc1cnc(Oc2ccc(-c3cnn4ccc(N5CCC5)nc34)cc2)nc1)Nc1cc(C(F)(F)F)ccc1-c1cccnc1` [Example 21-1, 1-(2-(4-(5-(azetidin-1-yl)pyrazolo[1,5-a]pyrimidin-3-yl)phenoxy)pyrimidin-5-yl)-3-(2-(pyridin-3-yl)-5-(trifluoromethyl)phenyl)urea]: the inhibition at 3 µM on KDR was 1.5%; on b-Raf it was 36%.
Regarding `COc1cccc(C2(O)CCCCC2CN(C)C)c1` (centres unmarked) [Tramadol, tramadol, reference compound], in assay [1] (10 mg/kg subcutaneously 1 hour before measurement on day 24), the “Percent improvement (%)” value is recorded as 43%.
For the compound `CCNc1ccn2ncc(-c3ccc(Oc4ncc(NC(=O)Nc5cc(C(F)(F)F)ccc5-c5cccc(C)c5)cn4)cc3)c2n1` [Example 21-67, 1-(2-{4-[5-(ethylamino)pyrazolo[1,5-a]pyrimidin-3-yl]phenoxyl}-5-pyrimidinyl)-3-[3′-methyl-4-(trifluoromethyl)-2-biphenylyl]urea], the inhibition at 3 µM was found to be 0% on KDR and 19% at b-Raf.
As to `Cn1nccc1-c1ccc(C(F)(F)F)cc1NC(=O)Nc1cnc(Oc2ccc(-c3cc(Cl)cnc3N)cc2)nc1` [Example 13-1, 1-(2-(4-(2-amino-5-chloropyridin-3-yl)phenoxy)pyrimidin-5-yl)-3-(2-(1-methyl-1H-pyrazol-5-yl)-5-(trifluoromethyl)phenyl)urea], the inhibition at 3 µM on KDR is 7.5%; on b-Raf, 33%.
For the compound `CCOc1ccc2ncc(-c3ccc(Oc4ncc(NC(=O)Nc5cc(C(F)(F)F)ccc5-c5cccnc5)cn4)cc3)n2n1` [Example 22-34, 1-{2-[4-(6-ethoxyimidazo[1,2-b]pyridazin-3-yl)phenoxy]-5-pyrimidinyl}-3-[2-(3-pyridinyl)-5-(trifluoromethyl)phenyl]urea], the inhibition at 3 µM on KDR stood at 19%; at b-Raf, 56%.

For the origin of these results see US10300060B2, “Trk-inhibiting compound” (ONO PHARMACEUTICAL CO., LTD., priority 2013, dated 2019).
